Data: patent publication US9636410B2, “Cationic oil-in-water emulsions” (priority 2011, dated 2017)

Tests used:
physchem = conditions: oil or lipid, thermodynamic from solid
[1] = Solubility of fatty acids in squalene; conditions: for solubility: oil or lipid, thermodynamic from solid
[2] = 4 °C, solubility in squalene, 4° C. (overnight), solution at the fatty acid's top concentration left at 4° C. overnight
[3] = 60 °C, solubility in squalene at 40 mg/mL, mixed with squalene at 60° C.
[4] = 60 °C, solubility in squalene at 20 mg/mL, mixed with squalene at 60° C.
[5] = 60 °C, solubility in squalene at 5 mg/mL, mixed with squalene at 60° C.
[6] = 60 °C, solubility in squalene at 10 mg/mL, mixed with squalene at 60° C.

| SMILES | solubility (physchem; [2]) [mg/mL] | solubility (physchem; [3]) [mg/mL] | solubility (physchem; [4]) [mg/mL] | solubility (physchem; [5]) [mg/mL] | solubility (physchem; [6]) [mg/mL] | other results |
| --- | --- | --- | --- | --- | --- | --- |
| CC/C=C\C/C=C\C/C=C\C/C=C\C/C=C\C/C=C\CCC(=O)O [Docosahexaenoic Acid (22:6), Docosahexaenoic Acid] | > 40 | > 40 |  |  |  |  |
| CCCCCCCCCCCCCC(=O)O [Myristic Acid (14:0), Myristic Acid] | < 40 | < 40 | > 20 |  |  |  |
| CC/C=C\C/C=C\C/C=C\CCCCCCCC(=O)O [Linolenic Acid (18:3), Linolenic Acid] | > 40 | > 40 |  |  |  |  |
| CCCCCCCC/C=C\CCCCCCCCCCCC(=O)O [Erucic Acid (22:1), Erucic Acid] |  |  |  |  |  | solubility (physchem; 4 °C): > 40 mg/mL; solubility (physchem; 60 °C): > 40 mg/mL |
| CCCCCC/C=C\CCCCCCCC(=O)O [Palmitoleic Acid (16:1), Palmitoleic Acid] | > 40 | > 40 |  |  |  |  |
| CCCCC/C=C\C/C=C\CCCCCCCC(=O)O [Linoleic Acid (18:2), Linoleic Acid] |  |  |  |  |  | solubility (physchem; 4 °C): > 40 mg/mL; solubility (physchem; 60 °C): > 40 mg/mL |
| CCCCCCCCCCCCCCCCCCCCCCCC(=O)O [Lignoceric Acid (24:0), Lignoceric Acid] | < 40 | < 40 | < 20 | < 5 | < 10 |  |
| CCCCCCCC/C=C\CCCCCCCCCCCCCC(=O)O [Nervonic Acid (24:1), Nervonic Acid] | < 40 | > 40 |  |  |  |  |
| CCCCCCCCCCCCCCCCCCCC(=O)O [Arachidic Acid (20:0), Arachidic Acid] | < 40 | < 40 | < 20 | > 5 | < 10 |  |
| CCCCCCCCCCCCCCCCCCCCCCC(=O)O [Tricosanoic Acid] | < 40 | < 40 | < 20 | < 5 | < 10 |  |
| CCCCCCCCCCCCCCCCCCC(=O)O [Nonadecanoic Acid] | < 40 | < 40 | < 20 | < 5 | < 10 |  |
| CCCCCCCC/C=C/CCCCCCCC(=O)O [Elaidic Acid (18:1)-trans, Elaidic Acid] | < 40 | > 40 |  |  |  |  |
| CCCCCCCCCCCCCCCCCCCCCC(=O)O [Behenic Acid (22:0), Behenic Acid] | < 40 | < 40 | < 20 | < 5 | < 10 |  |
| CCCCCCCCCCCCCCCCC(=O)O [Heptadecanoic Acid] | < 40 | < 40 | < 20 | > 5 | < 10 |  |
| CCCCCCCCCCCCCCCCCCCCC(=O)O [Heneicosanoic Acid] | < 40 | < 40 | < 20 | < 5 | < 10 |  |
| CCCCCCCCCCC(=O)O [Undecanoic Acid] | > 40 | > 40 |  |  |  |  |
| CCCCCCCCCCCCCCC(=O)O [Pentadecanoic Acid] | < 40 | > 40 |  |  |  |  |
| CCCCCCCC/C=C\CCCCCCCC(=O)O [Oleic Acid (18:1)-cis, Oleic Acid] | > 40 | > 40 |  |  |  | solubility in squalene ([1]; 40 mg/ml): soluble in squalene; solubility in squalene ([1]; 4° C. overnight): remained soluble in squalene |
| CCCCCCCCCCCCC(=O)O [Tridecanoic Acid] | < 40 | > 40 |  |  |  |  |
| CCCCCCCCCCCC(=O)O [Lauric acid (12:0), Lauric acid] |  |  |  |  |  | solubility (physchem; 4 °C): < 40 mg/mL; solubility (physchem; 60 °C): > 40 mg/mL |
| CCCCCCCCCCC/C=C\CCCCC(=O)O [Petroselinic Acid (18:1), Petroselinic Acid] |  |  |  |  |  | solubility ([1]; 4 °C): > 40 mg/mL; solubility ([1]; 60 °C): > 40 mg/mL |
